# Laboratory results from patent publication US20200316023A1, “Method Of Producing Bacterially Derived Indole-3-Propionic Acid And Compositions Comprising Same” (The Procter & Gamble Company, priority 2019, published 2020).
# Experiment: pharmacokinetic studies of IPA dose versus serum IPA levels
# Assay type: in vivo
# Conditions: dose of from about 5 to about 10 mg of IPA
# Description: In some aspects, the composition can comprise from about 5 to about 10 mg of IPA per dose of the composition.
compound,measurement,value
"O=C(O)CCc1c[nH]c2ccccc12 [IPA, Indole-3-propionic acid]",IPA levels in serum relative to endogenous baseline,increase IPA levels in serum beyond endogenous baseline values
